Data as given in ChEMBL document CHEMBL1156829 (Proc Natl Acad Sci U S A, 2008).

What was measured:
Plasmodium falciparum [1] = experiment: NOVARTIS: Inhibition of Plasmodium falciparum 3D7 (drug-susceptible) proliferation in erythrocyte-based infection assay; type: functional, organism-based; details: Plasmodium falciparum, 3D7
Plasmodium falciparum [2] = experiment: NOVARTIS: Inhibition of Plasmodium falciparum W2 (drug-resistant) proliferation in erythrocyte-based infection assay; type: functional, organism-based; details: Plasmodium falciparum, W2; read-out: EC50
[3] = NOVARTIS: Cytotoxicity against human hepatocellular carcinoma cell line (Huh7); type: toxicity, cell-based, Huh-7; details: Huh7 cells (hepatocellular carcinoma cell line)

SMILES | EC50 (Plasmodium falciparum [1]) | EC50 (Plasmodium falciparum [2]) | CC50 [3]
COc1cc(CNc2ccc(N3CCCCC3)cc2)ccc1OCc1ccccc1F | 475 nM | 335 nM | > 100000 nM
CCCn1c(SCCNC(=O)/C=C/c2ccccc2)nc(-c2ccccc2)c1-c1ccccc1 | 557 nM | 29.7 nM | 9380 nM
CCC(c1nc2ccccc2c(=O)n1-c1ccc(Br)cc1)N(CCc1ccccc1)C(=O)c1cccc(C(F)(F)F)c1 (configuration not stated) | 871 nM | 545 nM | > 10000 nM
COc1ccc(S(=O)(=O)N=C2C=C(Nc3ccccc3OC)C(=O)c3ccccc32)cc1 | 338 nM | 154 nM | 20100 nM
c1ccc(CN2CCC(Nc3ncnc4cc(-c5ccccc5)sc34)CC2)cc1 | 2060 nM | 4890 nM | > 100000 nM
C1=C(c2ccccc2)CCN(c2ncnc3c2nc2n3CCCCC2)C1 | 1290 nM | 1080 nM | > 85800 nM
COc1cc(C2c3[nH]c4ccccc4c3C[C@@H]3C(=O)N(CCc4ccccc4)CC(=O)N23)cc(OC)c1OC (some centres not stated) | 497 nM | 161 nM | > 10800 nM
CCCc1ccc(OCCNC(=O)CCNC(=O)Nc2cccc(Cl)c2)cc1 | > 1380 nM | > 999 nM | > 10000 nM
CC(CC(=O)NCCCCNc1ccnc2cc(Cl)ccc12)CC(C)(C)C (configuration not stated) | 443 nM | 296 nM | 4590 nM
O=c1[nH]c2cc(Cl)c(Br)nc2[nH]1 | > 1250 nM | 1180 nM | > 10000 nM
Cc1cc(O)ccc1-c1cnc2ccccc2n1 | > 541 nM | 241 nM | > 10000 nM
CCSc1nc2sc3c(c2c(=O)n1CC)CCN(C)C3 | 1410 nM | 923 nM | > 100000 nM
CCOc1ccc2[nH]c(=O)c(CN(CCN3CCCC3)C(=S)Nc3ccc(F)cc3)cc2c1 | 1820 nM | 2510 nM | > 100000 nM
COc1ccc(S(=O)(=O)ON=C2C=C(C(C)C)C(=O)C=C2C)cc1 | 834 nM | 296 nM | 18300 nM
CCOC(=O)c1ccc(NCc2c(C)[nH]c3ccccc3c2=O)cc1 | 342 nM | 254 nM | > 100000 nM
Cc1cnc(Sc2ccccn2)c([N+](=O)[O-])c1 | > 12500 nM | 6130 nM | 72900 nM
CN(C)CCCNc1ncc(C(=O)NCCc2ccccc2)c(NCC2CCCCC2)n1 | 1240 nM | > 1250 nM | > 10000 nM
COc1cc2cc(C(=O)Nc3ccccc3)c(N)nc2cc1OC | 409 nM | 964 nM | > 100000 nM
O=C(NCc1ccc(Cl)cc1)C(=O)NCc1ccccn1 | 1320 nM | 105 nM | 8240 nM
Fc1ccc(Nc2nc(NCc3ccccc3)c3ccccc3n2)cc1 | 75.5 nM | 58.6 nM | 8870 nM
Cc1cccc(NC(c2ccncc2)c2ccc3cccnc3c2O)n1 (configuration not stated) | 669 nM | 375 nM | 69900 nM
COc1ccc(CCNC(=O)Cn2c(C)cc3ccccc3c2=O)cc1OC | > 1540 nM | 796 nM | > 10000 nM
CCC(SC1=Nc2ccccc2C2=NC(C(C)C)C(=O)N12)C(=O)Nc1cccc(C)c1 (configuration not stated) | 7020 nM | 2400 nM | > 100000 nM

SMILES | EC50 (Plasmodium falciparum [1]) | EC50 (Plasmodium falciparum [2]) | CC50 [3]
CCCCNC(=O)C(CC(C)C)N1C(=O)c2cc(NC(C)=O)ccc2NC(=O)[C@@H]1C (some centres not stated) | 28.2 nM | 67.2 nM | > 12800 nM
CSc1nnc(CCNC(=O)c2c(-c3ccccc3)noc2C)n1-c1ccc(F)cc1 | > 12500 nM | 2410 nM | > 100000 nM
O=C(CN1CCN(C(=O)c2ccco2)CC1)Nc1ccccc1Br | 358 nM | 188 nM | > 100000 nM
O=C(NCc1ccccc1)NC1CC2CCCC(C1)N2Cc1ccccc1 (configuration not stated) | 879 nM | 423 nM | > 10000 nM
CCCCCCCCCCCCCC(=O)Oc1ccccc1-c1nc2cc(C)ccn2c1NC(C)(C)CC(C)(C)C | 1520 nM | 88.4 nM | > 10000 nM
OC(CN1CCN(Cc2ccccc2)CC1)Cn1c2ccc(Cl)cc2c2cc(Cl)ccc21 (configuration not stated) | 218 nM | 65.7 nM | 15700 nM
CC(C)(C)NC(=S)Nc1cccc(Cl)c1Cl | > 7240 nM | 2110 nM | > 100000 nM
CCCCCCC[N+](CC)(CC)CCCCc1ccc(Cl)cc1 | 431 nM | 90.9 nM | > 10000 nM
O=c1c2sccc2nc(SCc2cc(=O)n3ccccc3n2)n1Cc1ccccc1 | > 1250 nM | 1280 nM | > 10000 nM
COCCn1nnnc1C(c1cc2cc3c(cc2[nH]c1=O)OCCO3)N1CCC(O)CC1 (configuration not stated) | > 1250 nM | 974 nM | > 10000 nM
CCN(CC)CCCC(C)Nc1ccnc2ccc(-c3ccccc3)cc12 (configuration not stated) | 264 nM | 359 nM | > 10000 nM
COc1ccc(NC(=O)CCCCCn2c(SCC(=O)NCCc3ccc(OC)c(OC)c3)nc3ccsc3c2=O)cc1 | > 5310 nM | 837 nM | > 100000 nM
Cc1nc(N2CCC(C)CC2)c2c(C)c(C(=O)Nc3ccc(F)cc3)sc2n1 | 792 nM | > 912 nM | > 10000 nM
COc1ccc(NC(=O)c2cc3cc(C4(O)CCN(CC(C)c5ccccc5)CC4)ccc3o2)cc1 (configuration not stated) | 2400 nM | 1980 nM | > 100000 nM
COc1ccc(/C=C/C(=O)Nc2ccc(S(=O)(=O)N3CCOCC3)cc2)cc1 | > 1620 nM | 891 nM | > 10000 nM
Cc1n(N)c2ccccc2[n+]1CC(=O)c1ccc([N+](=O)[O-])cc1 | 1950 nM | 1140 nM | > 100000 nM
CCCCOc1ccc(-c2nnc(-c3ccc(C)cc3)n2-c2ccccc2)cc1 | > 1200 nM | > 777 nM | > 10000 nM
Cc1nc(NC(=N)N)nc2c(C)cccc12 | 301 nM | 443 nM | 16400 nM
CCOC(=O)C(=O)N1c2ccc(OC)cc2-c2c(ssc2=S)C1(C)C | 2.43 nM | 3.19 nM | > 100000 nM
CN(CCCNc1ccnc2cc(Cl)ccc12)C(=O)CC(C)(C)C | 236 nM | 173 nM | > 10000 nM
COC(=O)C1=C(C)NC2=C(C(=O)c3ccccc32)C1c1ccc(OCC#N)c(OC)c1 (configuration not stated) | 590 nM | 1530 nM | 84900 nM
COC(=O)c1ccc2c(=O)n(Cc3ccc4c(c3)OCO4)c(SCC(=O)n3nc(C)cc3N)nc2c1 | 144 nM | 41.2 nM | > 10000 nM
O=C(ON(C(=O)c1ccc(F)cc1)C1C2CC3CC(C2)CC1C3)c1ccc(F)cc1 (configuration not stated) | > 1250 nM | 26.7 nM | > 10000 nM

SMILES | EC50 (Plasmodium falciparum [1]) | EC50 (Plasmodium falciparum [2]) | CC50 [3]
CC(=O)Nc1ccccc1OC(F)(F)F | > 349 nM | 468 nM | > 13200 nM
Clc1ccc(-c2csc3ncnc(NCc4ccncc4)c23)cc1 | 2890 nM | 746 nM | > 100000 nM
COc1ccc(-n2nc(C(=O)NCc3ccccc3OC)c3ccccc3c2=O)cc1 | 377 nM | 390 nM | > 100000 nM
CC(C)N(CC(=O)Nc1cc(C(C)(C)C)nn1-c1ccc(Cl)c(Cl)c1)C(=O)c1ccc2ccccc2c1 | 1310 nM | 3000 nM | > 100000 nM
CCc1cccc(NC(=O)N2CCN(C(=O)c3nc(-c4ccccc4)nc(C)c3C(=O)OC(C)C)CC2C)c1 (configuration not stated) | 719 nM | < 14.1 nM | > 10000 nM
CC(C)(C)CC(C)(C)Nc1c(-c2ccccc2OC(=O)c2ccccc2)nc2ccccn12 | 1070 nM | 26.8 nM | > 1260 nM
Cc1cccc(-c2ccc(NC(=O)C3CCN(Cc4cnc(C)nc4)CC3)cc2)c1 | > 6880 nM | > 12500 nM | > 100000 nM
CC[n+]1c(/C=C/C=C2\N(C)c3ccccc3C2(C)C)n(CCCOC(C)=O)c2ccccc21 | 322 nM | 416 nM | > 10000 nM
CC(C)(C)CC(C)(C)Nc1c(-c2ccccc2OC(=O)c2cccc(Br)c2)nc2ccccn12 | 6620 nM | 823 nM | > 100000 nM
Cc1cc(C)cc(NCC(O)Cn2c3ccc(Cl)cc3c3cc(Cl)ccc32)c1 (configuration not stated) | 2220 nM | 569 nM | 31200 nM
Cc1cc(NC(=O)C=Cc2ccccc2Cl)ccc1Br | 1270 nM | 344 nM | > 100000 nM
Cc1cc(I)ccc1NC(=O)CNC(=O)OCc1ccccc1 | > 12500 nM | 1280 nM | > 100000 nM
Oc1ccc(-c2ccnc3cc(Cl)ccc23)cc1CNCCN1CCOCC1 | 984 nM | 622 nM | > 11900 nM
CCCCC(=O)N(CCCC(C)Nc1cc(OC)cc2cccnc12)Cc1ccccc1OC (configuration not stated) | 348 nM | 35 nM | 1060 nM
N#CC1=C(N)Oc2c(c(=O)oc3ccccc23)C1c1ccoc1 (configuration not stated) | > 1160 nM | > 1660 nM | > 10000 nM
COC(=O)C1=C(C)NC(=Cc2cc(C)n(-c3ccccc3C(F)(F)F)c2C)C1=O | 21.8 nM | 71 nM | > 100000 nM
Cc1cccc(OCC(=O)Nc2cccc(NC(=O)COc3cccc(C)c3)n2)c1 | 237 nM | 1160 nM | > 100000 nM
CCCC(=O)N1CCN(C(=O)c2nc(-c3ccccc3)nc(CCC)c2C(=O)OCC)CC1C (configuration not stated) | 1200 nM | 774 nM | > 10000 nM
CCN1C(C)=C(C)S/C1=C\c1ccc2cc(C)ccc2[n+]1C | 227 nM | 170 nM | 5720 nM
Cc1ccc(-c2nn(CC(=O)Nc3ccc(OC(F)(F)F)cc3)c(=O)c3ccccc23)cc1S(=O)(=O)N1CCCCC1 | > 1250 nM | 1920 nM | > 10000 nM
COC(=O)c1ccc(C(=O)Nc2ccc(-c3nc4cc(NC(=O)c5ccc(C(=O)OC)cc5)ccc4[nH]3)cc2)cc1 | 855 nM | 1090 nM | > 10000 nM
CC(=O)N(C)C1=C(N2CCCCCC2)C(=O)c2ccccc2C1=O | 35.8 nM | 38.6 nM | 1860 nM
COc1ccc(OC)c(-c2ccc(O)c(CN3CCCCCC3)c2)c1 | 570 nM | 87.6 nM | > 10000 nM
